{"source": "PubChem BioAssay AID2060897", "about": "(Molecular Pharmacology Branch, DTP, NCI, 2025)", "system": "966289-007-R4-J1-PDC complex spheroid viability", "experiment": "Anticancer human tumor 966289-007-R4-J1-PDC patient-derived pancreatic adenocarcinoma cell line growth inhibition [RAS]", "conditions": "for pIC50: curve of first compound; for viability, T/C: stronger effect = lower value", "outline": "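Agents were tested in combination matrices in half-log decrements from a top concentration at or near clinical Cmax (10 microM if undetermined). Targets were multi-cell spheroids of tumour lines plus HUVEC and MSC stromal cells.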", "key": {"[1]": {"conditions": "second compound 0.0316 µM, first compound 0.00316 µM"}, "[2]": {"conditions": "second compound 0.0316 µM, first compound 0.01 µM"}, "[3]": {"conditions": "second compound 0.0316 µM, first compound 0.0316 µM"}, "[4]": {"conditions": "second compound 0.0316 µM, first compound 0.1 µM"}, "[5]": {"conditions": "second compound 0.0316 µM, first compound 0.316 µM"}, "[6]": {"conditions": "second compound 0.0316 µM, first compound 1 µM"}, "[7]": {"conditions": "second compound 0.1 µM, first compound 0.00316 µM"}, "[8]": {"conditions": "second compound 0.1 µM, first compound 0.01 µM"}, "[9]": {"conditions": "second compound 0.1 µM, first compound 0.0316 µM"}, "[10]": {"conditions": "second compound 0.1 µM, first compound 0.1 µM"}, "[11]": {"conditions": "second compound 0.1 µM, first compound 0.316 µM"}, "[12]": {"conditions": "second compound 0.1 µM, first compound 1 µM"}, "[13]": {"conditions": "second compound 0.316 µM, first compound 0.00316 µM"}, "[14]": {"conditions": "second compound 0.316 µM, first compound 0.01 µM"}, "[15]": {"conditions": "second compound 0.316 µM, first compound 0.0316 µM"}, "[16]": {"conditions": "second compound 0.316 µM, first compound 0.1 µM"}, "[17]": {"conditions": "second compound 0.316 µM, first compound 0.316 µM"}, "[18]": {"conditions": "second compound 0.316 µM, first compound 1 µM"}, "[19]": {"conditions": "second compound 1 µM, first compound 0.00316 µM"}, "[20]": {"conditions": "second compound 1 µM, first compound 0.01 µM"}, "[21]": {"conditions": "second compound 1 µM, first compound 0.0316 µM"}, "[22]": {"conditions": "second compound 1 µM, first compound 0.1 µM"}, "[23]": {"conditions": "second compound 1 µM, first compound 0.316 µM"}, "[24]": {"conditions": "second compound 1 µM, first compound 1 µM"}, "[25]": {"conditions": "second compound 3.16 µM, first compound 0.00316 µM"}, "[26]": {"conditions": "second compound 3.16 µM, first compound 0.01 µM"}, "[27]": {"conditions": "second compound 3.16 µM, first compound 0.0316 µM"}, "[28]": {"conditions": "second compound 3.16 µM, first compound 0.1 µM"}, "[29]": {"conditions": "second compound 3.16 µM, first compound 0.316 µM"}, "[30]": {"conditions": "second compound 3.16 µM, first compound 1 µM"}, "[31]": {"conditions": "second compound 10 µM, first compound 0.00316 µM"}, "[32]": {"conditions": "second compound 10 µM, first compound 0.01 µM"}, "[33]": {"conditions": "second compound 10 µM, first compound 0.0316 µM"}, "[34]": {"conditions": "second compound 10 µM, first compound 0.1 µM"}, "[35]": {"conditions": "second compound 10 µM, first compound 0.316 µM"}, "[36]": {"conditions": "second compound 10 µM, first compound 1 µM"}}, "note": "pIC50: −log10 of the molar value.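 Also: spheroids exposed to agents for one week before readout.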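 For viability, T/C in this document: percent viability relative to DMSO vehicle control wells as 100%.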", "data": [{"smiles": "O=C(c1ccc(F)c(F)c1Nc1ccc(I)cc1F)N1CC(O)([C@@H]2CCCCN2)C1", "note": "+ C#Cc1c(F)ccc2cc(O)cc(-c3ncc4c(N5CC6CCC(C5)N6)nc(OCC56CCCN5CC(F)C6)nc4c3F)c12", "values": [{"measurement": "pIC50", "setting": "second compound 0.0316 µM", "result": 6.40}, {"measurement": "pIC50", "setting": "second compound 0.1 µM", "result": 6.42}, {"measurement": "pIC50", "setting": "second compound 0.316 µM", "result": 6.40}, {"measurement": "pIC50", "setting": "second compound 1 µM", "result": 6.39}, {"measurement": "pIC50", "setting": "second compound 3.16 µM", "result": 6.39}, {"measurement": "pIC50", "setting": "second compound 10 µM", "result": 6.28}, {"measurement": "viability, T/C", "setting": "[1]", "result": 87, "unit": "%"}, {"measurement": "viability, T/C", "setting": "[2]", "result": 68.4, "unit": "%"}, {"measurement": "viability, T/C", "setting": "[3]", "result": 78, "unit": "%"}, {"measurement": "viability, T/C", "setting": "[4]", "result": 66.3, "unit": "%"}, {"measurement": "viability, T/C", "setting": "[5]", "result": 55.5, "unit": "%"}, {"measurement": "viability, T/C", "setting": "[6]", "result": 31.8, "unit": "%"}, {"measurement": "viability, T/C", "setting": "[7]", "result": 96.2, "unit": "%"}, {"measurement": "viability, T/C", "setting": "[8]", "result": 73.7, "unit": "%"}, {"measurement": "viability, T/C", "setting": "[9]", "result": 61.7, "unit": "%"}, {"measurement": "viability, T/C", "setting": "[10]", "result": 66.3, "unit": "%"}, {"measurement": "viability, T/C", "setting": "[11]", "result": 64.5, "unit": "%"}, {"measurement": "viability, T/C", "setting": "[12]", "result": 33.3, "unit": "%"}, {"measurement": "viability, T/C", "setting": "[13]", "result": 76, "unit": "%"}, {"measurement": "viability, T/C", "setting": "[14]", "result": 70.3, "unit": "%"}, {"measurement": "viability, T/C", "setting": "[15]", "result": 73, "unit": "%"}, {"measurement": "viability, T/C", "setting": "[16]", "result": 60.8, "unit": "%"}, {"measurement": "viability, T/C", "setting": "[17]", "result": 56.4, "unit": "%"}, {"measurement": "viability, T/C", "setting": "[18]", "result": 33.3, "unit": "%"}, {"measurement": "viability, T/C", "setting": "[19]", "result": 74.5, "unit": "%"}, {"measurement": "viability, T/C", "setting": "[20]", "result": 74.4, "unit": "%"}, {"measurement": "viability, T/C", "setting": "[21]", "result": 65, "unit": "%"}, {"measurement": "viability, T/C", "setting": "[22]", "result": 65.2, "unit": "%"}, {"measurement": "viability, T/C", "setting": "[23]", "result": 56.6, "unit": "%"}, {"measurement": "viability, T/C", "setting": "[24]", "result": 32.8, "unit": "%"}, {"measurement": "viability, T/C", "setting": "[25]", "result": 78.6, "unit": "%"}, {"measurement": "viability, T/C", "setting": "[26]", "result": 72.9, "unit": "%"}, {"measurement": "viability, T/C", "setting": "[27]", "result": 70.7, "unit": "%"}, {"measurement": "viability, T/C", "setting": "[28]", "result": 64.4, "unit": "%"}, {"measurement": "viability, T/C", "setting": "[29]", "result": 54.2, "unit": "%"}, {"measurement": "viability, T/C", "setting": "[30]", "result": 36.3, "unit": "%"}, {"measurement": "viability, T/C", "setting": "[31]", "result": 77.7, "unit": "%"}, {"measurement": "viability, T/C", "setting": "[32]", "result": 69.8, "unit": "%"}, {"measurement": "viability, T/C", "setting": "[33]", "result": 71.2, "unit": "%"}, {"measurement": "viability, T/C", "setting": "[34]", "result": 66, "unit": "%"}, {"measurement": "viability, T/C", "setting": "[35]", "result": 59.4, "unit": "%"}, {"measurement": "viability, T/C", "setting": "[36]", "result": 39.3, "unit": "%"}]}, {"smiles": "C=CC(=O)Nc1cc(Nc2nccc(-c3cn(C)c4ccccc34)n2)c(OC)cc1N(C)CCN(C)C", "note": "+ C#Cc1c(F)ccc2cc(O)cc(-c3ncc4c(N5CC6CCC(C5)N6)nc(OCC56CCCN5CC(F)C6)nc4c3F)c12", "values": [{"measurement": "pIC50", "setting": "second compound 0.0316 µM", "result": "< 6.00"}, {"measurement": "pIC50", "setting": "second compound 0.1 µM", "result": "< 6.00"}, {"measurement": "pIC50", "setting": "second compound 0.316 µM", "result": "< 6.00"}, {"measurement": "pIC50", "setting": "second compound 1 µM", "result": "< 6.00"}, {"measurement": "pIC50", "setting": "second compound 3.16 µM", "result": "< 6.00"}, {"measurement": "pIC50", "setting": "second compound 10 µM", "result": "< 6.00"}, {"measurement": "viability, T/C", "setting": "[1]", "result": 107, "unit": "%"}, {"measurement": "viability, T/C", "setting": "[2]", "result": 96, "unit": "%"}, {"measurement": "viability, T/C", "setting": "[3]", "result": 101, "unit": "%"}, {"measurement": "viability, T/C", "setting": "[4]", "result": 96.3, "unit": "%"}, {"measurement": "viability, T/C", "setting": "[5]", "result": 94.2, "unit": "%"}, {"measurement": "viability, T/C", "setting": "[6]", "result": 94, "unit": "%"}, {"measurement": "viability, T/C", "setting": "[7]", "result": 94.8, "unit": "%"}, {"measurement": "viability, T/C", "setting": "[8]", "result": 103, "unit": "%"}, {"measurement": "viability, T/C", "setting": "[9]", "result": 99.8, "unit": "%"}, {"measurement": "viability, T/C", "setting": "[10]", "result": 110, "unit": "%"}, {"measurement": "viability, T/C", "setting": "[11]", "result": 90.4, "unit": "%"}, {"measurement": "viability, T/C", "setting": "[12]", "result": 88.8, "unit": "%"}, {"measurement": "viability, T/C", "setting": "[13]", "result": 108, "unit": "%"}, {"measurement": "viability, T/C", "setting": "[14]", "result": 92.6, "unit": "%"}, {"measurement": "viability, T/C", "setting": "[15]", "result": 114, "unit": "%"}, {"measurement": "viability, T/C", "setting": "[16]", "result": 105, "unit": "%"}, {"measurement": "viability, T/C", "setting": "[17]", "result": 105, "unit": "%"}, {"measurement": "viability, T/C", "setting": "[18]", "result": 87.2, "unit": "%"}, {"measurement": "viability, T/C", "setting": "[19]", "result": 102, "unit": "%"}, {"measurement": "viability, T/C", "setting": "[20]", "result": 93.1, "unit": "%"}, {"measurement": "viability, T/C", "setting": "[21]", "result": 97, "unit": "%"}, {"measurement": "viability, T/C", "setting": "[22]", "result": 106, "unit": "%"}, {"measurement": "viability, T/C", "setting": "[23]", "result": 97.9, "unit": "%"}, {"measurement": "viability, T/C", "setting": "[24]", "result": 82.8, "unit": "%"}, {"measurement": "viability, T/C", "setting": "[25]", "result": 108, "unit": "%"}, {"measurement": "viability, T/C", "setting": "[26]", "result": 107, "unit": "%"}, {"measurement": "viability, T/C", "setting": "[27]", "result": 129, "unit": "%"}, {"measurement": "viability, T/C", "setting": "[28]", "result": 101, "unit": "%"}, {"measurement": "viability, T/C", "setting": "[29]", "result": 114, "unit": "%"}, {"measurement": "viability, T/C", "setting": "[30]", "result": 106, "unit": "%"}, {"measurement": "viability, T/C", "setting": "[31]", "result": 97.5, "unit": "%"}, {"measurement": "viability, T/C", "setting": "[32]", "result": 109, "unit": "%"}, {"measurement": "viability, T/C", "setting": "[33]", "result": 108, "unit": "%"}, {"measurement": "viability, T/C", "setting": "[34]", "result": 118, "unit": "%"}, {"measurement": "viability, T/C", "setting": "[35]", "result": 91.3, "unit": "%"}, {"measurement": "viability, T/C", "setting": "[36]", "result": 115, "unit": "%"}]}]}
